In patent US10793568B2, “Hormone receptor modulators for treating metabolic conditions and disorders” (ARDELYX, INC., priority 2016, dated 2020):

Tests used:
[1] = biological target: human Farnesoid X receptor ligand-binding domain/Gal4 DNA binding domain chimera (Homo sapiens (Human), UniProt Q96RI1); experiment: Cell-based assay of FXR activation (FXR-UAS-bla HEK 293T beta-lactamase reporter); conditions: cellular FXR beta-lactamase reporter assay; for pEC50 / EC50: FXR-UAS-bla HEK 293T cells, 16 h, pEC50 = -log EC50; for % Efficacy / Emax: extent of activation relative to GW4064; for Emax: HEK-293T, read-out: % Efficacy
Outline: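 Readout is cleavage of the CCF4 FRET substrate (409 nm excitation, blue 447 nm signal) by beta-lactamase, expressed under UAS control after a Gal4–human FXR LBD chimera is activated in HEK 293T cells. Compounds were added as 3-fold dilutions for 16 h at 37 °C in 2% charcoal-stripped FBS medium. Curves were fit to a 3-parameter logistic equation to give pEC50, with % activation relative to GW4064.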

[2] = biological target: ligand binding domain of human FXR (Homo sapiens (Human), UniProt Q96RI1); experiment: FXR ligand binding assay (LanthaScreen TR-FRET, SRC2-2 peptide recruitment); conditions: for pEC50: -log EC50, concentration required to produce 50% activation; for % Efficacy / Emax: extent of activation relative to GW4064; for Emax: read-out: % Efficacy
Sequence of ligand binding domain of human FXR (Q96RI1 262-486): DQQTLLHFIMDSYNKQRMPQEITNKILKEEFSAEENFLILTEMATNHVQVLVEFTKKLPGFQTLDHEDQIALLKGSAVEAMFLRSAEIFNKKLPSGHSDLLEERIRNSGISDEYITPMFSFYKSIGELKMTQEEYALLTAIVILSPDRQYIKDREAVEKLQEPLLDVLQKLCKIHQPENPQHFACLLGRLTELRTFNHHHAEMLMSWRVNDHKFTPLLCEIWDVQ

Sequence of human Farnesoid X receptor ligand-binding domain/Gal4 DNA binding domain chimera (Q96RI1 262-486, change not shown): as the sequence (Q96RI1 262-486) above
Sequence of human Farnesoid X receptor ligand-binding domain/Gal4 DNA binding domain chimera (P04386 1-147 partner): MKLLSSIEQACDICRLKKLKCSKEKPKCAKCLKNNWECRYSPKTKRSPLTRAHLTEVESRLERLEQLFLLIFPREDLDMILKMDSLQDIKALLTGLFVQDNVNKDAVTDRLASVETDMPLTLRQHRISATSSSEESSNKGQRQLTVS

Structure (SMILES)	pEC50 [1]	% Efficacy [1]	pEC50 [2]	% Efficacy [2]	Emax [1]	EC50 [1]	Emax [2]
O=C(O)c1cc([C@H]2C[C@H]3CC[C@@H](C2)O3)c2nc(N3C[C@@H]4C[C@H]3C[C@H]4OCc3c(-c4c(Cl)cccc4Cl)noc3C3CC3)sc2c1 [Compound I-255, 2-[(1S,4S,5R)-5-{[5-cyclopropyl-3-(2,6-dichlorophenyl)-1,2-oxazol-4-yl]methoxy}-2-azabicyclo[2.2.1]heptan-2-yl]-4-[(1R,3R,5S)-8-oxabicyclo[3.2.1]octan-3-yl]-1,3-benzothiazole-6-carboxylic Acid]	9.3	104%	8.4	150%	–	–	–
O=C(O)c1cc([C@@H]2C[C@H]3CC[C@@H](C2)O3)c2nc(N3C[C@@H]4C[C@H]3C[C@H]4OCc3c(-c4c(Cl)cccc4Cl)noc3C3CC3)sc2c1 [Compound I-256, 2-[(1S,4S,5R)-5-{[5-cyclopropyl-3-(2,6-dichlorophenyl)-1,2-oxazol-4-yl]methoxy}-2-azabicyclo[2.2.1]heptan-2-yl]-4-[(1R,3S,5S)-8-oxabicyclo[3.2.1]octan-3-yl]-1,3-benzothiazole-6-carboxylic Acid]	9.7	107%	8.4	157%	–	–	–
O=C(O)c1cc(C2CC3(CCOCC3)C2)c2nc(N3C[C@@H]4C[C@H]3C[C@H]4OCc3c(-c4c(Cl)cccc4Cl)noc3C3CC3)sc2c1 [Compound I-257, 2-[(1S,4S,5R)-5-{[5-cyclopropyl-3-(2,6-dichlorophenyl)-1,2-oxazol-4-yl]methoxy}-2-azabicyclo[2.2.1]heptan-2-yl]-4-{7-oxaspiro[3.5]nonan-2-yl}-1,3-benzothiazole-6-carboxylic Acid]	–	–	8.6	–	108%	0.1 nM	148%
O=C(O)c1cc(C2CCCOCC2)c2nc(N3C[C@@H]4C[C@H]3C[C@H]4OCc3c(-c4c(Cl)cccc4Cl)noc3C3CC3)sc2c1 (stereo partly drawn) [Compound I-258, 2-[(1S,4S,5R)-5-{[5-cyclopropyl-3-(2,6-dichlorophenyl)-1,2-oxazol-4-yl]methoxy}-2-azabicyclo[2.2.1]heptan-2-yl]-4-(oxepan-4-yl)-1,3-benzothiazole-6-carboxylic Acid]	–	–	8.6	–	106%	0.126 nM	146%
O=C(O)c1cc(OC2CC2)c2nc(N3C[C@@H]4C[C@H]3C[C@H]4OCc3c(-c4c(Cl)cccc4Cl)noc3C3CC3)sc2c1 [Compound I-259, 4-cyclopropoxy-2-[(1S,4S,5R)-5-{[5-cyclopropyl-3-(2,6-dichlorophenyl)-1,2-oxazol-4-yl]methoxy}-2-azabicyclo[2.2.1]heptan-2-yl]-1,3-benzothiazole-6-carboxylic Acid]	–	–	8.5	–	114%	0.1 nM	124%
O=C(O)c1cc(O[C@H]2CCOC2)c2nc(N3C[C@@H]4C[C@H]3C[C@H]4OCc3c(-c4c(Cl)cccc4Cl)noc3C3CC3)sc2c1 [Compound I-260, 2-[(1S,4S,5R)-5-{[5-cyclopropyl-3-(2,6-dichlorophenyl)-1,2-oxazol-4-yl]methoxy}-2-azabicyclo[2.2.1]heptan-2-yl]-4-[(3S)-oxolan-3-yloxy]-1,3-benzothiazole-6-carboxylic Acid]	–	–	8.8	–	103%	0.398 nM	148%
O=C(O)c1cc(O[C@@H]2CCOC2)c2nc(N3C[C@@H]4C[C@H]3C[C@H]4OCc3c(-c4c(Cl)cccc4Cl)noc3C3CC3)sc2c1 [Compound I-261, 2-[(1S,4S,5R)-5-{[5-cyclopropyl-3-(2,6-dichlorophenyl)-1,2-oxazol-4-yl]methoxy}-2-azabicyclo[2.2.1]heptan-2-yl]-4-[(3R)-oxolan-3-yloxy]-1,3-benzothiazole-6-carboxylic Acid]	–	–	8.6	–	110%	0.398 nM	161%
Cc1cc(C(=O)O)cc2sc(N3C[C@@H]4C[C@H]3C[C@H]4OCc3c(-c4c(F)cccc4Cl)noc3C3CC3)nc12 [Compound I-262, 2-[(1S,4S,5R)-5-{[3-(2-chloro-6-fluorophenyl)-5-cyclopropyl-1,2-oxazol-4-yl]methoxy}-2-azabicyclo[2.2.1]heptan-2-yl]-4-methyl-1,3-benzothiazole-6-carboxylic Acid]	–	–	8.6	–	114%	2 nM	144%
O=C(O)c1cc(OC2CC2)c2nc(N3C[C@@H]4C[C@H]3C[C@H]4OCc3c(-c4c(F)cccc4Cl)noc3C3CC3)sc2c1 [Compound I-263, 2-((1S,4S,5R)-5-((3-(2-chloro-6-fluorophenyl)-5-cyclopropylisoxazol-4-yl)methoxy)-2-azabicyclo[2.2.1]heptan-2-yl)-4-cyclopropoxybenzo[d]thiazole-6-carboxylic acid]	–	–	8.6	–	109%	0.1 nM	150%
O=C(O)c1cc(C2CCOCC2)c2nc(N3C[C@@H]4C[C@H]3C[C@H]4OCc3c(-c4c(F)cccc4Cl)noc3C3CC3)sc2c1 [Compound I-264, 2-((1S,4S,5R)-5-((3-(2-chloro-6-fluorophenyl)-5-cyclopropylisoxazol-4-yl)methoxy)-2-azabicyclo[2.2.1]heptan-2-yl)-4-(tetrahydro-2H-pyran-4-yl)benzo[d]thiazole-6-carboxylic acid]	–	–	8.5	–	105%	0.631 nM	142%
O=C(O)c1cc([C@H]2CCOC2)c2nc(N3C[C@@H]4C[C@H]3C[C@H]4OCc3c(-c4c(F)cccc4Cl)noc3C3CC3)sc2c1 [Compound I-265]	–	–	8.4	–	110%	0.501 nM	146%
O=C(O)c1cc([C@@H]2CCOC2)c2nc(N3C[C@@H]4C[C@H]3C[C@H]4OCc3c(-c4c(F)cccc4Cl)noc3C3CC3)sc2c1 [Compound I-266, 2-((1S,4S,5R)-5-((3-(2-chloro-6-fluorophenyl)-5-cyclopropylisoxazol-4-yl)methoxy)-2-azabicyclo[2.2.1]heptan-2-yl)-4-((S)-tetrahydrofuran-3-yl)benzo[d]thiazole-6-carboxylic Acid]	–	–	8.6	–	105%	0.251 nM	139%
O=C(O)c1cc(O[C@H]2CCOC2)c2nc(N3C[C@@H]4C[C@H]3C[C@H]4OCc3c(-c4c(F)cccc4Cl)noc3C3CC3)sc2c1 [Compound I-267, 2-((1S,4S,5R)-5-((3-(2-chloro-6-fluorophenyl)-5-cyclopropylisoxazol-4-yl)methoxy)-2-azabicyclo[2.2.1]heptan-2-yl)-4-(((S)-tetrahydrofuran-3-yl)oxy)benzo[d]thiazole-6-carboxylic acid]	–	–	8.6	–	102%	1 nM	146%
O=C(O)c1cc(O[C@@H]2CCOC2)c2nc(N3C[C@@H]4C[C@H]3C[C@H]4OCc3c(-c4c(F)cccc4Cl)noc3C3CC3)sc2c1 [Compound I-268, 2-((1S,4S,5R)-5-((3-(2-chloro-6-fluorophenyl)-5-cyclopropylisoxazol-4-yl)methoxy)-2-azabicyclo[2.2.1]heptan-2-yl)-4-(((R)-tetrahydrofuran-3-yl)oxy)benzo[d]thiazole-6-carboxylic acid]	–	–	8.6	–	102%	1.58 nM	146%
Cc1cccc(Cl)c1-c1noc(C2CC2)c1CO[C@@H]1C[C@@H]2C[C@H]1CN2c1nc2c(C)cc(C(=O)O)cc2s1 [Compound I-269]	–	–	8.5	–	106%	0.631 nM	137%
Cc1cccc(Cl)c1-c1noc(C2CC2)c1CO[C@@H]1C[C@@H]2C[C@H]1CN2c1nc2c(OC3CC3)cc(C(=O)O)cc2s1 [Compound I-270, 2-((1S,4S,5R)-5-((3-(2-chloro-6-methylphenyl)-5-cyclopropylisoxazol-4-yl)methoxy)-2-azabicyclo[2.2.1]heptan-2-yl)-4-cyclopropoxybenzo[d]thiazole-6-carboxylic acid]	–	–	8.7	–	106%	0.1 nM	150%
Cc1cccc(Cl)c1-c1noc(C2CC2)c1CO[C@@H]1C[C@@H]2C[C@H]1CN2c1nc2c(C3CCOCC3)cc(C(=O)O)cc2s1 [Compound I-271, 2-((1S,4S,5R)-5-((3-(2-chloro-6-methylphenyl)-5-cyclopropylisoxazol-4-yl)methoxy)-2-azabicyclo[2.2.1]heptan-2-yl)-4-(tetrahydro-2H-pyran-4-yl)benzo[d]thiazole-6-carboxylic acid]	–	–	8.6	–	108%	0.398 nM	132%
Cc1cccc(Cl)c1-c1noc(C2CC2)c1CO[C@@H]1C[C@@H]2C[C@H]1CN2c1nc2c([C@H]3CCOC3)cc(C(=O)O)cc2s1 [Compound I-272, 2-((1S,4S,5R)-5-((3-(2-chloro-6-methylphenyl)-5-cyclopropylisoxazol-4-yl)methoxy)-2-azabicyclo[2.2.1]heptan-2-yl)-4-((R)-tetrahydrofuran-3-yl)benzo[d]thiazole-6-carboxylic Acid]	–	–	8.4	–	105%	0.501 nM	132%
Cc1cccc(Cl)c1-c1noc(C2CC2)c1CO[C@@H]1C[C@@H]2C[C@H]1CN2c1nc2c([C@@H]3CCOC3)cc(C(=O)O)cc2s1 [Compound I-273, 2-((1S,4S,5R)-5-((3-(2-chloro-6-methylphenyl)-5-cyclopropylisoxazol-4-yl)methoxy)-2-azabicyclo[2.2.1]heptan-2-yl)-4-((S)-tetrahydrofuran-3-yl)benzo[d]thiazole-6-carboxylic Acid]	–	–	8.4	–	106%	0.398 nM	132%
